Results as given in patent US8404696B2, “Quinazoline-2,4-dione derivative, and medical compositions for the prophylaxis and treatment of cranial nerve disease containing the same” (Shin Poong Pharmaceutical Co., Ltd., priority 2008, dated 2013).
Converted amounts (≈) assume the structure as drawn.

What was measured:
[1] = tested on: pentylentetrazole (PTZ)-induced convulsion; assay: Anti-convulsant effect, pentylentetrazole (PTZ) test; assay type: in vivo; conditions: 10 mg/kg intraperitoneally, PTZ 80 mg/kg subcutaneously; for mortality rate / Induction percentage of convulsion: (animals/total); for mortality rate: negative control 70(17/23); for Induction percentage of convulsion: negative control 100(23/23); for Initiation time of convulsion: negative control 5.0 ± 0.7; for Duration of convulsion: negative control 46.7 ± 3.3
Protocol: An experiment was performed by the method of Ali et al. (Ali, A. et al. 2006, Pharmacological Reports, 58: 242-245). A 10 mg/kg dose of compound was intraperitoneally administered to identify the anti-convulsant effect and the effect was observed (Table 8). Researching the process of activity was performed by the Anti-epileptic Drug Development Program (ADD) of NIH during development of the anti-convulsant drug. One of the assessed items of anti-convulsant activity in the first step of this program is the pentylentetrazole (PTZ) test. […] After 10 mg/kg of the testing drug was administered, assessment was performed by estimating the initiation time of convulsion, duration until convulsion completely disappeared and mortality rate. It was assessed as having an anti-convulsant effect when a single episode of clonic spasm was not shown over 5 seconds on at least one of the 4 laboratory animals after PTZ administration.

[2] = tested on: mixed culture of nerve cells-glial cells; assay: Protecting effect on NMDA-induced nerve cell death (LDH release); assay type: cell-based, ICR mouse; conditions: 100 μM NMDA, LDH release after 24 hours
Protocol: Isolation and culture of nerve cells were performed by Choi's method (Choi, D. W. 1985, Neurosci. Lett., 58: 293-297). That is, the cortex was isolated in fetus ICR mouse that was 14 days pregnant, and then single cells were obtained from the tissue using pipette. The cells were aliquoted into 2×10^5/well density in a 24-well plate (Falcon) in which glial cells of cerebral cortex had been cultured in an incubator maintained at 37° C. with 5% CO2 for over 3 weeks. The culture medium was supplemented with MEM (minimum essential medium, Sigma), 2 mM glutamine, 21 mM glucose, 26.5 mM bicarbonate, 10% fetal bovine serum (FBS). In 3-5 days after aliquot, 10 μM Ara-C (cytosine arabinoside) was treated to suppress proliferation of neuroglia. And it was treated with 100 μM NMDA and 1 μg/mL or 2 μg/mL of each sample (compound) to induce the death of nerve cells due to excitable toxicity for 20 minutes, in 12-15 days after aliquot. Because of nerve cell death, lactate dehydrogenase (LDH) accumulated in proportion to the number of dead cells. In 24 hours after drug treatment, the amount of dehydrogenase (LDH) released to outside of cells was measured by using an […] measurement kit (CytoTox 96, Promega). After the reaction was completed, the change of absorbance depending on the amount of LDH was measured by using a microplate spectrophotometer.

[3] = tested on: superoxide dismutase (SOD); assay: Increase of superoxide dismutase (SOD) activity in mouse brain cells; assay type: cell-based; conditions: 100 μg/ml
Protocol: (§1) ROS inhibitory effect of compounds was represented to the dose suppressing 50% of production of reactive oxygen compared to control. […] The activity of superoxide dismutase (SOD) was measured by using a kit acquired in Sigma.

mouse brain cells = assay: Inhibitory effect on ROS production in brain cells (DCF-DA, NMDA-induced); assay type: cell-based; conditions: 24 h; dose suppressing 50% of production of reactive oxygen compared to control; mouse brain cells; read-out: ROS inhibitory effect ID50
Protocol: Oxidative stress was measured to test inhibitory effects on the production of reactive oxygen species (ROS) by using DCF-DA, which is a fluorescent probe. Brain cells were obtained from brain cortex of mouse to prepare cell solution with 2×10^6 cells/ml. Each brain cell was treated with 11 μM of DCF-DA followed by reaction in 37° C., 5% CO2 incubator for an hour. After washing twice, Compound 3 was treated with a concentration of 125 μg/ml and 250 μg/ml. At the same time, 300 μM of NMDA was treated and it was incubated in 37° C., 5% CO2 incubator for 24 hours.
as §1

thoracic aorta of rats = assay: Relaxing effect on thoracic aorta contracted by phenylephrine (organ bath); set-up: species or system rats of SD species; conditions: Rattus norvegicus; 67 μg/mL; phenylephrine 0.5 μM; mean n = 3; read-out: Relaxation percentage
From the text: After male rats of SD species (250-300 g) were anesthetized by inhalation of ether, their thoracic aortas were extracted and put into a Krebs buffer (mM; NaCl 118, NaHCO3 27.3, KCl 4.8, MgSO4 1.2, KH2PO4 1.0, CaCl2 1.25, glucose 11.1). 2 mm of aortic ring was made under dissecting microscope and cultured in an organ bath to measure the tension of blood vessels. The organ bath was filled with Krebs buffer and saturated with 95% O2, 5% CO2 to maintain dissolved oxygen and physiological pH. Changing of tension was measured by a tension meter (Hugo-sachs, model K30) and recorded by physiological recorder (Coulbourn polygraph). The length of the blood vessels was increased step by step to make 1.0 g of basal tension for 90 minutes. The equilibrated blood vessel was contracted by phenylephrine (0.5 μM). When the contraction furrow reached equilibrium, compounds were added, followed by observation of relaxation response.

“3-[3-(4-{N-[3-(2,4-dioxo-1,4-dihydro-2H-quinazolin-3-yl)propyl]-N-benzylamino}butyl)-N-benzylamino]propyl-1H-quinazoline-2,4-dione [Compound 15]” was tested. Which mortality rate [1] did it give?
Its mortality rate is 83(5/6) %.

And the “Induction percentage of convulsion” value [1]?
Its value is 83(5/6) %.

And the “Initiation time of convulsion” value [1]?
The value was 25.7 ± 7.2 min.

What about the Duration of convulsion [1] of the same compound?
Its Duration of convulsion is 34.3 ± 7.2 min.

What about the “Inhibitory effect of cell death by NMDA-induced excitable neurotoxicity” value (“Inhibitory effect of cell death” for short) ([2]; 1 μg/ml compound) of the same compound?
Its value is 22.4%.

And the “Inhibitory effect of cell death” value ([2]; 2 μg/ml compound)?
Its value is 22.3%.

What about the “Increase of SOD activity, compared to control” value (“Increase of SOD activity” below) [3] of the same compound?
Its value is 1.3 ± 3.1.

`O=C(NCCCNCCCCNCCCn1c(=O)[nH]c2ccccc2c1=O)c1ccc(O)cc1` [Compound 8, N-(3-{4-[3-(2,4-dioxo-1,4-dihydro-2H-quinazolin-3-yl)propylamino]butylamino}propyl)-4-hydroxybenzamide] was tested. Which “Inhibitory effect of cell death” value ([2]; 1 μg/ml compound) did it give?
The value was 20.0%.

What about the “Inhibitory effect of cell death” value ([2]; 2 μg/ml compound) of the same compound?
The value was 28.2%.

What about the IC50 (mouse brain cells) of the same compound?
The IC50 was 103 ± 20.4 µg/mL (≈ 220 µM).

What about the inhibition at 67 µg/mL (thoracic aorta of rats) of the same compound?
Its inhibition at 67 µg/mL is 35.7%.

Which results are given for `CC(C)(C)OC(=O)N(CCCCNCCCn1c(=O)[nH]c2ccccc2c1=O)CCCn1c(=O)[nH]c2ccccc2c1=O` [Compound 11, [3-(2,4-dioxo-1,4-dihydro-2H-quinazolin-3-yl)propyl]-{4-[3-(2,4-dioxo-1,4-dihydro-2H-quinazolin-3-yl)propylamino]butyl}carbamic Acid tert-butyl ester]?
mortality rate [1]: 17(1/6) %; Induction percentage of convulsion [1]: 100(6/6) %; Initiation time of convulsion [1]: 10.1 ± 4.9 min; Duration of convulsion [1]: 44.9 ± 5.8 min; Inhibitory effect of cell death by NMDA-induced excitable neurotoxicity ([2]; 1 μg/ml compound): 15.0%; Increase of SOD activity, compared to control [3]: 2.3 ± 3.4; inhibition at 67 µg/mL (thoracic aorta of rats): 10.9%

For `CCOC(=O)N(CCCCN(CCCn1c(=O)[nH]c2ccccc2c1=O)C(=O)OCC)CCCn1c(=O)[nH]c2ccccc2c1=O` [Compound 16, [3-(2,4-dioxo-1,4-dihydro-2H-quinazolin-3-yl)propyl]-(4-{[3-(2,4-dioxo-1,4-dihydro-2H-quinazolin-3-yl)propyl]ethoxycarbonylamino}butyl)carbamic Acid ethyl ester], which mortality rate [1] is on record?
The mortality rate was 0(0/6) %.

And the “Induction percentage of convulsion” value [1]?
The value was 100(6/6) %.

And the “Initiation time of convulsion” value [1]?
The value was 7.6 ± 1.7 min.

And the Duration of convulsion [1]?
The Duration of convulsion was 6.4 ± 2.3 min.

And the “Inhibitory effect of cell death” value ([2]; 1 μg/ml compound)?
Its value is 18.1%.

What about the “Increase of SOD activity” value [3] of the same compound?
The value was 7.5 ± 2.3.

Which “Inhibitory effect of cell death” value ([2]; 1 μg/ml compound) does the source give for `CC(C)(C)OC(=O)N(CCCCN(CCCn1c(=O)[nH]c2ccccc2c1=O)C(=O)OC(C)(C)C)CCCn1c(=O)[nH]c2ccccc2c1=O` [Compound 17, (4-{tert-butoxycarbonyl-[3-(2,4-dioxo-1,4-dihydro-2H-quinazolin-3-yl)propyl]amino}butyl)-[3-(2,4-dioxo-1,4-dihydro-2H-quinazolin-3-yl)propyl]carbamic acid tert-butyl ester] here?
The value was 21.0%.

And the “Inhibitory effect of cell death” value ([2]; 2 μg/ml compound)?
Its value is 10.7%.

What about the “Increase of SOD activity” value [3] of the same compound?
The value was 0.3 ± 0.0.

And the inhibition at 67 µg/mL (thoracic aorta of rats)?
The inhibition at 67 µg/mL was 51.7%.

For `CC(=O)N(CCCCNCCCNC(=O)c1ccc(O)cc1)CCCn1c(=O)[nH]c2ccccc2c1=O` [Compound 20, N-[3-(4-{acetyl-[3-(2,4-dioxo-1,4-dihydro-2H-quinazolin-3-yl)propyl]amino}butylamino)propyl]-4-hydroxybenzamide], which mortality rate [1] is on record?
Its mortality rate is 0(0/6) %.

What about the “Induction percentage of convulsion” value [1] of the same compound?
The value was 50(3/6) %.

What about the “Initiation time of convulsion” value [1] of the same compound?
Its value is 44.7 ± 11.0 min.

What about the Duration of convulsion [1] of the same compound?
The Duration of convulsion was 0.9 ± 1.9 min.

And the “Inhibitory effect of cell death” value ([2]; 1 μg/ml compound)?
The value was 36.4%.

And the “Inhibitory effect of cell death” value ([2]; 2 μg/ml compound)?
The value was 42.5%.

And the inhibition at 67 µg/mL (thoracic aorta of rats)?
Its inhibition at 67 µg/mL is 15.2%.

Which mortality rate [1] does the source give for `CC(=O)N(CCCCN(CCCn1c(=O)[nH]c2ccccc2c1=O)C(C)=O)CCCNC(=O)c1ccc(O)cc1` [Compound 21, N-{3-[acetyl-(4-{acetyl-[3-(2,4-dioxo-1,4-dihydro-2H-quinazolin-3-yl)propyl]amino}butyl)amino]propyl}-4-hydroxybenzamide] here?
Its mortality rate is 0(0/6) %.

What about the “Induction percentage of convulsion” value [1] of the same compound?
The value was 67(4/6) %.

What about the “Initiation time of convulsion” value [1] of the same compound?
The value was 22.2 ± 11.9 min.

And the Duration of convulsion [1]?
Its Duration of convulsion is 6.7 ± 3.1 min.

What about the “Inhibitory effect of cell death” value ([2]; 1 μg/ml compound) of the same compound?
Its value is 19.6%.

What about the “Inhibitory effect of cell death” value ([2]; 2 μg/ml compound) of the same compound?
The value was 16.6%.

What about the “Increase of SOD activity” value [3] of the same compound?
The value was −0.3 ± 3.7.

And the inhibition at 67 µg/mL (thoracic aorta of rats)?
The inhibition at 67 µg/mL was 2.6%.

What does the source list for `Cn1c(=O)n(CCCN(CCCCN(CCCn2c(=O)c3ccccc3n(C)c2=O)C(=O)OC(C)(C)C)C(=O)OC(C)(C)C)c(=O)c2ccccc21` [Compound 26, (4-{tert-butoxycarbonyl-[3-(1-methyl-2,4-dioxo-1,4-dihydro-2H-quinazolin-3-yl)propyl]amino}butyl)-[3-(1-methyl-2,4-dioxo-1,4-dihydro-2H-quinazolin-3-yl)propyl]carbamic acid tert-butyl ester]?
mortality rate [1]: 50(3/6) %; Induction percentage of convulsion [1]: 83(5/6) %; Initiation time of convulsion [1]: 15.4 ± 9.0 min; Duration of convulsion [1]: 33.0 ± 9.5 min; Inhibitory effect of cell death by NMDA-induced excitable neurotoxicity ([2]; 1 μg/ml compound): 8.8%; Inhibitory effect of cell death by NMDA-induced excitable neurotoxicity ([2]; 2 μg/ml compound): 29.7%; Increase of SOD activity, compared to control [3]: 0.7 ± 5.7; inhibition at 67 µg/mL (thoracic aorta of rats): 3.7%

Which results are given for `O=C(N(CCCCNCCCn1c(=O)[nH]c2ccccc2c1=O)CCCn1c(=O)[nH]c2ccccc2c1=O)C(F)(F)F` [Compound 36, N-[3-(2,4-dioxo-1,4-dihydro-2H-quinazolin-3-yl)propyl]-N-{4-[3-(2,4-dioxo-1,4-dihydro-2H-quinazolin-3-yl)propylamino]butyl}-2,2,2-trifluoroacetamide]?
mortality rate [1]: 33(2/6) %; Induction percentage of convulsion [1]: 100(6/6) %; Initiation time of convulsion [1]: 8.9 ± 2.3 min; Duration of convulsion [1]: 25.1 ± 9.7 min; Inhibitory effect of cell death by NMDA-induced excitable neurotoxicity ([2]; 1 μg/ml compound): 32.2%; Inhibitory effect of cell death by NMDA-induced excitable neurotoxicity ([2]; 2 μg/ml compound): 18.4%; Increase of SOD activity, compared to control [3]: 4.9 ± 1.2
